Assay results reported in patent publication US10155948B2, “Pharmaceutical composition for preventing or treating diabetic complications and screening method for preventive or therapeutic agent for diabetic complications” (KANGWON NATIONAL UNIVERSITY UNIVERSITY-INDUSTRY COOPERATION …, priority 2016, dated 2018).

Experiments:
HRECs = test: Visualization of actin filaments (stress fiber formation) in HRECs; assay type: cell-based, human; conditions: for VEGF-induced stress fiber formation: summary statement, conditions not given; for VEGF-activated stress fiber formation: HRECs, 50 μM cystamine or 20 μM MDC 30 min, 10 ng/ml VEGF
Experimental: (§1) Actin filaments and VE-cadherin were visualized as previously described. For visualization of actin filaments, cells were treated with 10 ng/ml VEGF for 1 hr at 37° C., fixed with 3.7% formaldehyde, and permeabilized with 0.2% Triton X-100. […] For visualization of VE-cadherin, cells were preincubated with the TGase2 inhibitors for 30 min and treated with 10 ng/ml VEGF for 90 min at 37° C. Following fixation and permeabilization, cells were incubated overnight with a monoclonal anti-VE-cadherin antibody (1:200, Santa Cruz Biotechnology) at 4° C. Cells were then probed with an FITC-conjugated goat anti-mouse antibody (1:200, Sigma) and VE-cadherin was visualized using confocal microscopy. Adherens junctions are represented by histograms of VE-cadherin as indicated by dotted lines and were quantitatively analyzed using peak fluorescence intensities of the histograms at the single-cell level for 10 randomly selected cells per experiment.
(§2) (A-C) HRECs were preincubated with 50 μM cystamine (Cys) and 20 μM MDC for 30 min and treated with 10 ng/ml VEGF. Stress fibers and VE-cadherin were stained and visualized by confocal microscopy as described in Research Design and Methods (n=3) ((A) Representative images of stress fibers. Scale Bar, 30 μm. (B) Representative images of VE-cadherin. Scale Bar, 10 μm). Adherens junctions are represented by histograms of VE-cadherin as indicated by dotted lines. (C) Adherens junctions were quantitatively analyzed using the peak fluorescence intensities of the histograms at the single-cell level. The results are expressed as mean±SD from three independent trials. (D) In-vitro endothelial cell monolayer permeability assay. HRECs on inserts of Transwell® Permeable Supports were incubated with 50 μM cystamine and 20 μM MDC for 30 min and treated with 10 ng/mL VEGF for 90 min. The amount of FITC-dextran that diffused to the lower chamber was measured by a microplate spectrofluorometer (n=3) (**p<0.01).
(§3) HRECs were transfected with 100 nM human TGase2-specific siRNA (TGase2 siRNA) or 100 nM control (Ctrl) siRNA. Endothelial cells were treated with 10 ng/ml VEGF and subjected to the confocal microscopic visualization of stress fibers (A) and VE-cadherin (B), as described in Research Design and Methods (n=3). (A) TGase2 siRNA inhibition of VEGF-induced formation of stress fibers. Scale bar, 30 μm. (B) Representative images of VE-cadherin and adherens junctions represented by VE-cadherin histograms. Scale bar, 10 μm. (C) Adherens junctions were quantitatively analyzed using peak fluorescence intensities of the histograms at the single-cell level. Results are expressed as mean±SD from three independent experiments (***p<0.001).

VE-cadherin = test: Visualization of VE-cadherin (adherens junction disruption) in HRECs; assay type: cell-based, human; conditions: for VEGF-induced VE-cadherin disruption: summary statement, conditions not given; for VEGF-induced VE-cadherin breakdown: HRECs, 50 μM cystamine or 20 μM MDC 30 min, 10 ng/ml VEGF
Experimental: as §1, §2, §3

retinas of diabetic mice = test: Vascular leakage in retina of diabetic mice (fluorescein angiography, FITC-dextran); assay type: in vivo, mouse; conditions: for increase of vascular leakage in retinas of diabetic mice: intravitreal injection, 0.5 mM dopamine, 500 mM cysteamine, n=6; for vascular leakage in diabetic retina (FITC-dextran extravasation): diabetic mice, intravitreal 2 μl 50 mM cystamine or 20 mM MDC, after 24 hrs, p<0.001, n=8
Experimental: Two weeks after streptozotocin injection, diabetic mice were intravitreally injected with 2 μl of TGase inhibitors (50 mM cystamine or 20 mM MDC), 1 μM C-peptide (American Peptide Company, Sunnyvale, Calif.), ROS scavengers (2 μM Trolox or 500 mM NAC), or 65 μM mouse TG2-specific siRNA (Dharmacon, Lafayette, Colo.) into one eye and an equal volume of PBS or mouse control siRNA (Dharmacon, Lafayette, Colo.) into the contralateral eye. Non-diabetic mice were also intravitreally injected with 2 μl of PBS or mouse control siRNA into the eyes. After 24 hrs for inhibitors or C-peptide or 48 hrs for mouse TGase2 siRNA, mice were subjected to measurement of in-vivo TGase activity and vascular leakage from the retina.
Microvascular leakage in mouse retina was investigated via the fluorescein angiography method as previously described. In brief, 24 hrs or 48 hrs after intravitreal injection of TGase2 inhibitors or mouse TGase2 siRNA, respectively, mice were deeply anaesthetized and 1.25 mg of 500 kDa FITC-dextran (Sigma) was injected into the left ventricle. The dye was allowed to circulate for 5 min and mice were sacrificed via cervical dislocation. The eyes were enucleated and immediately fixed with 4% paraformaldehyde for 45 min. Retinas were dissected in the Maltese cross-configuration and flat-mounted onto glass slides. The superficial vessels of the retinas (n=8 per group) were observed by confocal microscopy and vascular leakage was quantitatively analyzed using the Fluoview software by determining the fluorescence intensities of FITC-dextran extravasated from the retina vessel.
Six-week-old male C57BL/6 mice were obtained from KOATECH (Pyeongtaek, Korea). TGase2^−/− mice (C57BL/6) were prepared by disrupting exons 5 and 6 of TGase2 by homologous recombination, as previously described. Diabetic mice were generated by a single intraperitoneal injection of streptozotocin (150 mg/kg body weight, Sigma) freshly prepared in 100 mM citrate buffer (pH 4.5) as previously described. Mice with non-fasting blood glucose levels greater than 19 mM, polyuria and glucosuria were considered diabetic. Experiments were performed in strict accordance with the guidelines of the Institutional Animal Care and Use Ethics Committee of Kangwon National University.
(A, B) Streptozotocin-diabetic mice were intravitreally injected with PBS (diabetic), cystamine (diabetic+Cys) or MDC (diabetic+MDC) into the eyes. Non-diabetic mice were also intravitreally injected with PBS into eyes (normal). […] (B) Retina permeability was quantified by measuring the fluorescence intensities of FITC-dextran in (A). […]
Dopamine and cysteamine were intravitreally injected into mouse eyes, and diabetic retinas were then analyzed for vascular leakage through fluorescein angiography.

## NCCS [cysteamine]
HRECs
  VEGF-induced stress fiber formation: prevented
VE-cadherin
  VEGF-induced VE-cadherin disruption: prevented
Retinas of diabetic mice
  increase of vascular leakage in retinas of diabetic mice: inhibited

## NCCc1ccc(O)c(O)c1 [dopamine]
HRECs
  VEGF-induced stress fiber formation: prevented
VE-cadherin
  VEGF-induced VE-cadherin disruption: prevented
Retinas of diabetic mice
  increase of vascular leakage in retinas of diabetic mice: inhibited

## CN(C)c1cccc2c(S(=O)(=O)NCCCCCN)cccc12 [MDC, monodansylcadaverine]
HRECs
  VEGF-activated stress fiber formation: prevented
VE-cadherin
  VEGF-induced VE-cadherin breakdown: inhibited
Retinas of diabetic mice
  vascular leakage in diabetic retina (FITC-dextran extravasation): prevented

## NCCSSCCN [cystamine]
HRECs
  VEGF-activated stress fiber formation: prevented
VE-cadherin
  VEGF-induced VE-cadherin breakdown: inhibited
Retinas of diabetic mice
  vascular leakage in diabetic retina (FITC-dextran extravasation): prevented
